The conditions of this data set: for aqueous solubility: pH 6.8.

Molecules are shown by their SMILES. ≈ marks a conversion by molar mass, not a printed value. Some results are limits rather than exact numbers.

With `O=C(CN1CCCC1=O)N1CCc2nc3sccc3c(=O)n2CC1`, the intrinsic clearance, human liver microsomes is no more than 0.284 L/h/kg and the intrinsic clearance, rat liver microsomes is no more than 0.64 L/h/kg.
With `COc1cccc(CNc2ncc(-c3ccccc3)n2C)c1`, the MDR1-MDCK efflux ratio is 0.539; the intrinsic clearance, human liver microsomes came to 56.3 L/h/kg; the intrinsic clearance, rat liver microsomes worked out at 133 L/h/kg; the aqueous solubility came out at 0.0235 mg/mL (≈ 80 µM).
Consider `CCCc1noc(CN2CCN(c3ccccc3OC)CC2)n1`, for which the MDR1-MDCK efflux ratio was 0.743; the intrinsic clearance, human liver microsomes turned out to be 1.62 L/h/kg; the intrinsic clearance, rat liver microsomes was 21.1 L/h/kg.
For `Cc1ccccc1-n1nc(C(C)(C)C)cc1N`, the MDR1-MDCK efflux ratio came to 0.607; the intrinsic clearance, human liver microsomes worked out at 0.393 L/h/kg; the intrinsic clearance, rat liver microsomes is no more than 0.64 L/h/kg; the aqueous solubility turned out to be 0.0448 mg/mL (≈ 195 µM).
For `CS(=O)(=O)N(CC(=O)Nc1ccccc1C(=O)NCc1ccco1)c1ccc(F)cc1` the same measures were 9.61, 7.88 L/h/kg, 66.8 L/h/kg and 0.0352 mg/mL (≈ 78.9 µM).
In the same order, the values of `CC(=O)N1CCN(C(=O)CCc2ccc(-c3ccccc3)[nH]2)CC1` are 8.83, no more than 0.284 L/h/kg, 3.58 L/h/kg and 0.0618 mg/mL (≈ 190 µM).
For `Cc1ccc(-n2nc(C(C)(C)C)cc2NC(=O)Nc2ccc(OCCN3CCOCC3)c3ccccc23)cc1` the same measures were 6.55, 22.4 L/h/kg, 42.2 L/h/kg and 0.0166 mg/mL (≈ 31.6 µM).
The compound `O=C1CCC(=O)N1Cc1nc(Cc2ccccc2)cs1` displayed an intrinsic clearance, human liver microsomes of no more than 0.284 L/h/kg and an intrinsic clearance, rat liver microsomes of 8.71 L/h/kg.
As for `c1cc(Nc2cc(C3CC3)[nH]n2)nc(Nc2ccc3nc[nH]c3c2)n1`, the MDR1-MDCK efflux ratio stood at 2.39; the intrinsic clearance, human liver microsomes amounted to 0.904 L/h/kg; the intrinsic clearance, rat liver microsomes turned out to be 4.28 L/h/kg.
With `O=C(Nc1ccc2c3c(cccc13)CC2)c1ccc(-n2cncn2)cc1`, the MDR1-MDCK efflux ratio is 0.473 and the aqueous solubility is 0.00018 mg/mL (≈ 0.529 µM).
`CC(C)c1noc(CN(C)C2CCCC2)n1`: the intrinsic clearance, human liver microsomes came to 0.954 L/h/kg; the intrinsic clearance, rat liver microsomes worked out at 39.4 L/h/kg; the aqueous solubility was 0.0173 mg/mL (≈ 77.3 µM).
Take `COc1ccc(CN2CCc3nc(-c4cccnc4)nc(O)c3C2)c(C)c1C`: the MDR1-MDCK efflux ratio was 3.34; the intrinsic clearance, human liver microsomes is 1.15 L/h/kg; the intrinsic clearance, rat liver microsomes is 3.1 L/h/kg; the aqueous solubility was 0.00844 mg/mL (≈ 22.4 µM).
In the same order, the values of `Cc1ccc(NC(=O)CN2CCCC(c3nc4ccccc4o3)C2)cc1C` (centres undefined) are 1.08, 13 L/h/kg, 157 L/h/kg and 0.01 mg/mL (≈ 27.5 µM).
Consider `CC(C)c1nsc(N2CCC(Nc3cccnc3)CC2)n1`, for which the MDR1-MDCK efflux ratio was determined as 0.816; the intrinsic clearance, human liver microsomes was found to be 1.58 L/h/kg; the intrinsic clearance, rat liver microsomes was 24.2 L/h/kg.
With `Cc1nc2c(c(N(C)Cc3ccccc3)n1)CCN(Cc1ccccc1)C2`, the MDR1-MDCK efflux ratio turned out to be 0.742; the intrinsic clearance, human liver microsomes was 39.4 L/h/kg; the intrinsic clearance, rat liver microsomes amounted to 250 L/h/kg; the aqueous solubility was determined as 0.0297 mg/mL (≈ 82.8 µM).
For the compound `c1cc(CC2CCNCC2)c2cccnc2c1`, the intrinsic clearance, human liver microsomes was no more than 0.284 L/h/kg; the intrinsic clearance, rat liver microsomes was found to be 8.46 L/h/kg; the aqueous solubility was determined as 0.0522 mg/mL (≈ 231 µM).
For the compound `COc1ccc(-c2cn3c4ccccc4nc3n2CCO)cc1`, the MDR1-MDCK efflux ratio came to 0.389; the intrinsic clearance, human liver microsomes is 2.53 L/h/kg; the intrinsic clearance, rat liver microsomes stood at 71.7 L/h/kg; the aqueous solubility is 0.047 mg/mL (≈ 153 µM).
The compound `COC(=O)[C@]12CCC(C)(C)CC1C1C(=O)C=C3[C@@]4(C)C=C(C#N)C(=O)C(C)(C)[C@@H]4CC[C@@]3(C)[C@]1(C)CC2` (some centres undefined) yielded an intrinsic clearance, human liver microsomes of 5.61 L/h/kg; an intrinsic clearance, rat liver microsomes of 19.4 L/h/kg; an aqueous solubility of 0.00315 mg/mL (≈ 6.23 µM).
As for `O[C@@H]1C[C@@H](c2nc(-c3ccccc3)no2)N(Cc2ccccc2)C1`, the MDR1-MDCK efflux ratio came out at 0.539; the intrinsic clearance, human liver microsomes was found to be 3.25 L/h/kg; the intrinsic clearance, rat liver microsomes stood at 54.5 L/h/kg; the aqueous solubility was found to be 0.0416 mg/mL (≈ 129 µM).
For `Nc1ncc(-c2cccc(C(F)(F)F)c2)c(C2CCCCN2C(=O)c2ccccc2)n1` (centres undefined), the MDR1-MDCK efflux ratio is 1.93; the fraction unbound, human plasma stood at 0.00903; the fraction unbound, rat plasma was 0.0137; the intrinsic clearance, human liver microsomes is 22.8 L/h/kg. This compound also registered an intrinsic clearance, rat liver microsomes of 90.4 L/h/kg and an aqueous solubility of 0.0251 mg/mL (≈ 58.9 µM).
For `CN(C(=O)OC(C)(C)C)c1ccc2ccccc2n1`, the MDR1-MDCK efflux ratio is 0.472 and the aqueous solubility was 0.00028 mg/mL (≈ 1.08 µM).
For the compound `CCCN1CCCN(c2ncccc2C#N)CC1`, the MDR1-MDCK efflux ratio stood at 0.42; the intrinsic clearance, human liver microsomes amounted to 1.77 L/h/kg; the intrinsic clearance, rat liver microsomes amounted to 101 L/h/kg; the aqueous solubility is 0.0279 mg/mL (≈ 114 µM).
As for `Cc1[nH]ncc1-c1nn2c(Cc3ccccc3Cl)nnc2s1`, the aqueous solubility came out at 0.00418 mg/mL (≈ 12.6 µM).
As for `CC(=O)N1CCC(CNc2nccc3cccnc23)CC1`, the MDR1-MDCK efflux ratio worked out at 1.9; the intrinsic clearance, human liver microsomes was no more than 0.284 L/h/kg; the intrinsic clearance, rat liver microsomes turned out to be 4.85 L/h/kg.
Take `O=C(c1ccc(Cl)cc1)N1CCC[C@@H](C(=O)N2CCc3ccccc3C2)C1`: the MDR1-MDCK efflux ratio was 2.44; the intrinsic clearance, human liver microsomes turned out to be 21.6 L/h/kg; the intrinsic clearance, rat liver microsomes was determined as 152 L/h/kg.
The compound `NCCC(=O)Nc1ccc2[nH]c(=O)[nH]c2c1` registered an aqueous solubility of 0.143 mg/mL (≈ 648 µM).
In the case of `Cn1cc(CNc2ncccn2)c(C(C)(C)C)n1`, the MDR1-MDCK efflux ratio came to 0.905; the intrinsic clearance, human liver microsomes was no more than 0.284 L/h/kg; the intrinsic clearance, rat liver microsomes was found to be 21.8 L/h/kg.
For `CC(=O)N1CCC(CCNc2ccc3ccc(F)cc3n2)CC1`, the MDR1-MDCK efflux ratio was 0.795; the intrinsic clearance, human liver microsomes amounted to 1.29 L/h/kg; the intrinsic clearance, rat liver microsomes came to 15.8 L/h/kg; the aqueous solubility was found to be 0.0462 mg/mL (≈ 146 µM).
For `O=C(c1cccc(Cl)c1)N1CCN(C(=O)c2ccc3ccccc3c2O)CC1` the same measures were 0.678, 1.73 L/h/kg, 9.96 L/h/kg and 0.0024 mg/mL (≈ 6.08 µM).
`Cc1cc(F)ccc1NC(=O)c1cccc2cccnc12`: the MDR1-MDCK efflux ratio is 0.117 and the aqueous solubility turned out to be 0.00044 mg/mL (≈ 1.57 µM).
On to `CC(C)(C)n1ncc(C(=O)N2CCCn3ncnc32)c1C(F)(F)F`, for which the MDR1-MDCK efflux ratio amounted to 0.971; the intrinsic clearance, human liver microsomes was determined as 1.67 L/h/kg; the intrinsic clearance, rat liver microsomes was 22.5 L/h/kg; the aqueous solubility worked out at 0.0462 mg/mL (≈ 135 µM).
On to `COCC1(CNC(=O)c2cc(Cl)cnc2O)CCC1`, for which the MDR1-MDCK efflux ratio worked out at 5.64; the intrinsic clearance, human liver microsomes amounted to 0.979 L/h/kg; the intrinsic clearance, rat liver microsomes is 28.5 L/h/kg.
Regarding `COc1ccc(CCC(=O)N2CCCNCC2)cc1`, the MDR1-MDCK efflux ratio is 2.76; the intrinsic clearance, human liver microsomes was no more than 0.284 L/h/kg; the intrinsic clearance, rat liver microsomes is no more than 0.64 L/h/kg; the aqueous solubility worked out at 0.0357 mg/mL (≈ 136 µM).
For `O=C(Nc1ccc(C(=O)O)c(O)c1)c1ccc(NC(=O)c2cccs2)cc1` the same measures were 0.572, no more than 0.284 L/h/kg, no more than 0.64 L/h/kg and 0.0543 mg/mL (≈ 142 µM).
On to `Cn1ccc(CSc2n[nH]c(-c3cc(F)cc(F)c3)n2)n1`, for which the MDR1-MDCK efflux ratio was determined as 0.58; the intrinsic clearance, human liver microsomes came out at 0.776 L/h/kg; the intrinsic clearance, rat liver microsomes is 7.89 L/h/kg.
Regarding `O=C(CCCc1nc2ccccc2[nH]1)N1CCCC1`, the MDR1-MDCK efflux ratio worked out at 17.5; the intrinsic clearance, human liver microsomes was no more than 0.284 L/h/kg; the intrinsic clearance, rat liver microsomes came out at 5.1 L/h/kg; the aqueous solubility turned out to be 0.0358 mg/mL (≈ 139 µM).
On to `CCCNC(=O)c1c(C)nn(-c2ccccc2)c1C`, for which the MDR1-MDCK efflux ratio was found to be 0.668; the intrinsic clearance, human liver microsomes was determined as 0.783 L/h/kg; the intrinsic clearance, rat liver microsomes was determined as 124 L/h/kg; the aqueous solubility turned out to be 0.0307 mg/mL (≈ 119 µM).
Regarding `CCN1CCN(c2ccc(Nc3ncnc4sccc34)cc2)CC1`, the MDR1-MDCK efflux ratio is 1.2; the intrinsic clearance, human liver microsomes is no more than 0.284 L/h/kg; the intrinsic clearance, rat liver microsomes is 3.72 L/h/kg.
As to `CN(Cc1cccc(C#N)c1)Cc1cnn(C)c1`, the MDR1-MDCK efflux ratio is 0.578; the intrinsic clearance, human liver microsomes was no more than 0.284 L/h/kg; the intrinsic clearance, rat liver microsomes is no more than 0.64 L/h/kg; the aqueous solubility stood at 0.0321 mg/mL (≈ 134 µM).
In the same order, the values of `CN(Cc1cscn1)c1nc2c(cc1C#N)CCC2` are 0.641, 5.7 L/h/kg, 71 L/h/kg and 0.0336 mg/mL (≈ 124 µM).
Compound `O=C(COc1ccc(F)cc1F)N1CCNC1=O` had an aqueous solubility of 0.097 mg/mL (≈ 379 µM).
Turning to `O=C(NCc1cccc(O)c1)Nc1ccccc1F`, the intrinsic clearance, human liver microsomes was no more than 0.284 L/h/kg; the intrinsic clearance, rat liver microsomes came to 3.53 L/h/kg; the aqueous solubility was determined as 0.0364 mg/mL (≈ 140 µM).
In turn, `Cc1ccccc1N1C(=O)c2ccc(C(=O)NC(C)(C)C)cc2C1=O` showed an aqueous solubility of 0.0499 mg/mL (≈ 148 µM).
Turning to `CCN(C)S(=O)(=O)N(C)Cc1cnc2ccccc2c1`, the MDR1-MDCK efflux ratio came to 0.658; the intrinsic clearance, human liver microsomes was determined as 0.908 L/h/kg; the intrinsic clearance, rat liver microsomes came to 139 L/h/kg.
For the compound `C#CCNC(=O)c1ccc2c(c1)OCO2`, the MDR1-MDCK efflux ratio amounted to 0.809; the intrinsic clearance, human liver microsomes stood at 0.839 L/h/kg; the intrinsic clearance, rat liver microsomes worked out at 2.07 L/h/kg; the aqueous solubility stood at 0.026 mg/mL (≈ 128 µM).
Take `Cn1cc(-c2ccnc(/C=C/c3ccc(F)cc3Br)n2)cn1`: the MDR1-MDCK efflux ratio worked out at 0.658 and the aqueous solubility was found to be 0.00068 mg/mL (≈ 1.89 µM).
With `Clc1ccc2c(c1)CCc1cccnc1C2=C1CCNCC1`, the MDR1-MDCK efflux ratio came to 47.8; the intrinsic clearance, human liver microsomes is no more than 0.284 L/h/kg; the intrinsic clearance, rat liver microsomes is 6.5 L/h/kg.
The compound `Cc1cc(C(=O)NC2CCN(c3ncnc4sc(C)c(C)c34)CC2)on1` showed an intrinsic clearance, human liver microsomes of 2.6 L/h/kg; an intrinsic clearance, rat liver microsomes of 22.1 L/h/kg; an aqueous solubility of 0.00249 mg/mL (≈ 6.7 µM).

What is called aqueous solubility is the dissolved amount per volume that the medium holds. Low readings indicate little dissolved substance, high ones much dissolved substance.

Source of the values: the Biogen ADME set (Fang et al. 2023).
